These results are taken from patent publication US20210276967A1 (OSPEDALE SAN RAFFAELE S.R.L., priority 2018, published 2021).

Experiment [1] deals with HBV. The note with it: Phase 1b clinical studies; cited from earlier work.
The subject of experiment [2] is HBV. Description: HBV inhibition in HepAD38 cells, extracellular HBV DNA by direct qPCR. The experiment is classed as cell-based, hepatitis B virus. The note with it: Hepatitis B virus; 0.5 μM, HepAD38, 96 hours; read-out: HBV inhibition % (conc μM). The text has this: HepAD38 cell line (Ladner et al., Antimicrob Agents Chemother, 1997, 41, 1715-20) was used for HBV inhibition assays. HepAD38 is a subclone, derived from hepatoblastoma cell line HepG2 (ATCC® Number: HB-8065™), that expresses HBV genome under the transcriptional control of a tetracycline-responsive promoter in a TET-OFF system: addition of tetracycline (TET) or doxycycline suppresses HBV replication, while its removal switches on the process allowing HBV viral particles release in the cell supernatant. HepAD38 cell line is maintained in DMEM/F12, supplemented with 10% of fetal bovine serum, 1% of glutamine, 1% of penicillin/streptomycin, 0.4 mg/ml G418 and 0.3 ug/ml tetracycline. For the HBV inhibition assay, doxycycline-free medium is used in order to allow virion production.
HBV inhibition activity in vitro was performed in 96 multiwell plates. During the initial (primary) screening compounds were first tested in triplicates at concentrations of 0.1 μM, 0.5 μM and 1 μM. For selected compounds, an 8-point dose-response curve was obtained using 1:2 serial dilutions (starting from 2.5 μM, 1.25 μM or 0.4 μM, depending on the degree of inhibition observed during the primary screening). From the dose-response curves, half maximal effective concentration (EC50) could be calculated (see also below).
In more detail, compounds—typically dissolved in DMSO stock solutions—were diluted to 2× the final desired concentration in 100 μl of the above medium (without doxycycline) and plated in three replicates in the 96-well plates.
Simultaneously, HepAD38 cells—extensively pre-washed in tetracycline-free medium in order to induce HBV production—were suspended at 2*10^4 cells in 100 μl of tetracycline-free medium and added to each well of the plate, to yield a final assay volume of 200 μl.
DMSO, used for stock solutions and compounds dilutions, is always present in the assays at a final concentration of 0.5%.
Plates were then incubated 96 hours at 37° C. and then subjected to cell viability assays and extracellular HBV quantification, in order to evaluate both the cytotoxic potential and the anti-viral activity of compounds.
Cytotoxicity was assessed by a commercial fluorescence assay that measures the metabolic activity of cells, directly related to cell viability (Cell Titer Blue, Promega). For each compound, cytotoxicity was evaluated at the same concentration employed to evaluate its anti-HBV activity. Anti-HBV activity was evaluated by quantification of extracellular HBV DNA with direct qPCR. In particular, supernatant was collected and centrifuged for cell debris clarification, viral DNA was extracted from virions by addition of lysis buffer (1 mM 1,4-dithiothreitol, 0.2% sodium dodecyl sulphate) and incubated at 95° C. for 10 min. Samples were then diluted 1:40 and real time PCR amplification was performed with SYBR green assay (Power SYBR™ Green PCR Master Mix-Thermo Fisher Scientific) and specific HBV primer (HBV-DF:5′-[…]-3′ (SEQ ID No. 1), HBV-DR:5′-[…]-3′ (SEQ ID No. 2)).
All HBV inhibition or antiviral activity data are typically reported in percent (%) relative to a non-treated reference sample. Excel and Graphpad Prism programs are typically used for data elaboration and EC50 calculation.

As to `O=C(Nc1cc(F)c(F)c(F)c1)c1ccc(F)c(S(=O)(=O)N2CCC(O)CC2)c1` [NVR3-778], in the experiment on HBV [1], the “reduction in HBV DNA” value is on record as “significant reduction” and the “reduction in serum HBV RNA” value is reported as “significant reduction”.
The term inhibition denotes how much of the control response was suppressed. Consider `Cc1cc(C(=O)Nc2cc(F)c(F)c(F)c2)cc(S(N)(=O)=O)c1N` [Example E36, 4-amino-3-methyl-5-sulfamoyl-N-(3,4,5-trifluorophenyl)benzamide], for which, in the experiment on HBV [2], the inhibition at 0.5 µM is over 50%.
Consider `Nc1ccc(C(=O)Nc2ccc(F)c(C(F)(F)F)c2)cc1S(N)(=O)=O` [Example E7, 4-amino-N-(4-fluoro-3-(trifluoromethyl)phenyl)-3-sulfamoylbenzamide], for which the inhibition at 0.5 µM with HBV [2] is over 50%.
Same read-out and setting: next, `Nc1ccc(C(=O)Nc2ccc(F)c(F)c2)cc1S(N)(=O)=O` [Example E4, 4-amino-N-(3,4-difluorophenyl)-3-sulfamoylbenzamide]: over 50%.
